According to article PMC6934184, “Selective DNA-PKcs inhibition extends the therapeutic index of localized radiotherapy and chemotherapy” (The Journal of Clinical Investigation, 2019):

Target: T1, KIT V654A (Homo sapiens, UniProt P10721, V654A)
T1 construct: purchased Thermo Fisher Scientific (Life Technologies) SelectScreen
Experiment: SelectScreen LanthaScreen
Assay type: binding
Conditions: read-out: % displacement
Summary of the method: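 Percent values come from Thermo SelectScreen profiling of NU5455, combining activity and binding assays. CSF1R was run in Z'LYTE format at Km app ATP, and CAMK1 in Adapta format with ATP listed at 10.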

T1 sequence (P10721 26-976 V654A): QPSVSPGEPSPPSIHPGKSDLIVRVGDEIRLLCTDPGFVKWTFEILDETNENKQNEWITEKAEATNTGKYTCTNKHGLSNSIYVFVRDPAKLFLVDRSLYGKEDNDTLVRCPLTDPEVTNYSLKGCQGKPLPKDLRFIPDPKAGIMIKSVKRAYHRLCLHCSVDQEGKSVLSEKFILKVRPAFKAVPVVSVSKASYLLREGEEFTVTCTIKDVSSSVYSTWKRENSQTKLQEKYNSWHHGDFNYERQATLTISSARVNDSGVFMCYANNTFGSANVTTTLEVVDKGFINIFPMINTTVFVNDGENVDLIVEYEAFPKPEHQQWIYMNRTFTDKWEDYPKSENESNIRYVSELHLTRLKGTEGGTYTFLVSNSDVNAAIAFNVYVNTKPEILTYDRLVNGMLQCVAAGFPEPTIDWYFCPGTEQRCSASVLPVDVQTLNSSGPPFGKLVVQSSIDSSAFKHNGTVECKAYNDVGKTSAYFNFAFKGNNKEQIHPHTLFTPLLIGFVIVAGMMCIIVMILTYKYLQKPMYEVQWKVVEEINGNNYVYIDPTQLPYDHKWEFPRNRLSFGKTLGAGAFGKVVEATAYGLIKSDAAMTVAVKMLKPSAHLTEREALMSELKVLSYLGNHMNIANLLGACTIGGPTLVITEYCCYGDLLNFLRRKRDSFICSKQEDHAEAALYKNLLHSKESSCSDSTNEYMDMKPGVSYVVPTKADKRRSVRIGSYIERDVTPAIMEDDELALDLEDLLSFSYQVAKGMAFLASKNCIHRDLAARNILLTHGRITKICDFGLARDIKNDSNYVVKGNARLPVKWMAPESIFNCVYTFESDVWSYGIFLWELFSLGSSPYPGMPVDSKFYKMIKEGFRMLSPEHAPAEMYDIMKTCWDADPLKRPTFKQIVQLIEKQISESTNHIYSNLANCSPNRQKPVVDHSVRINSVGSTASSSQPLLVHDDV

## CN(C(=O)CN1CCOCC1)c1ccc2sc3c(-c4cccc5c(=O)cc(N6CC7CCC(C6)O7)oc45)cccc3c2c1 [NU5455]
  inhibition at 1 µM: 8.1%
